Source: ChEMBL document CHEMBL2331451, “Discovery of (1R,2R)-N-(4-(6-isopropylpyridin-2-yl)-3-(2-methyl-2H-indazol-5-yl)isothiazol-5-yl)-2-methylcyclopropanecarboxamide, a potent and orally efficacious mGlu5 receptor negative allosteric modulator” (Bioorg Med Chem Lett, 2013)
Activity calls are given as the source filed them. The calls are words filed in the database; no cut-off is given here.

Tests used:
Homo sapiens = species: Homo sapiens; assay: Selectivity ratio of IC50 for human recombinant mGlu1 receptor to IC50 for human recombinant mGlu5 receptor
[1] = biological target: Metabotropic glutamate receptor 1 (Homo sapiens, UniProt Q13255); assay: Negative allosteric modulation of human recombinant mGlu1 receptor expressed in Syrian hamster AV12 cells assessed as receptor-mediated changes in intracellular calcium concentration by FLIPR assay; assay type: functional, cell-based
Chain of Metabotropic glutamate receptor 1 (Q13255 whole entry): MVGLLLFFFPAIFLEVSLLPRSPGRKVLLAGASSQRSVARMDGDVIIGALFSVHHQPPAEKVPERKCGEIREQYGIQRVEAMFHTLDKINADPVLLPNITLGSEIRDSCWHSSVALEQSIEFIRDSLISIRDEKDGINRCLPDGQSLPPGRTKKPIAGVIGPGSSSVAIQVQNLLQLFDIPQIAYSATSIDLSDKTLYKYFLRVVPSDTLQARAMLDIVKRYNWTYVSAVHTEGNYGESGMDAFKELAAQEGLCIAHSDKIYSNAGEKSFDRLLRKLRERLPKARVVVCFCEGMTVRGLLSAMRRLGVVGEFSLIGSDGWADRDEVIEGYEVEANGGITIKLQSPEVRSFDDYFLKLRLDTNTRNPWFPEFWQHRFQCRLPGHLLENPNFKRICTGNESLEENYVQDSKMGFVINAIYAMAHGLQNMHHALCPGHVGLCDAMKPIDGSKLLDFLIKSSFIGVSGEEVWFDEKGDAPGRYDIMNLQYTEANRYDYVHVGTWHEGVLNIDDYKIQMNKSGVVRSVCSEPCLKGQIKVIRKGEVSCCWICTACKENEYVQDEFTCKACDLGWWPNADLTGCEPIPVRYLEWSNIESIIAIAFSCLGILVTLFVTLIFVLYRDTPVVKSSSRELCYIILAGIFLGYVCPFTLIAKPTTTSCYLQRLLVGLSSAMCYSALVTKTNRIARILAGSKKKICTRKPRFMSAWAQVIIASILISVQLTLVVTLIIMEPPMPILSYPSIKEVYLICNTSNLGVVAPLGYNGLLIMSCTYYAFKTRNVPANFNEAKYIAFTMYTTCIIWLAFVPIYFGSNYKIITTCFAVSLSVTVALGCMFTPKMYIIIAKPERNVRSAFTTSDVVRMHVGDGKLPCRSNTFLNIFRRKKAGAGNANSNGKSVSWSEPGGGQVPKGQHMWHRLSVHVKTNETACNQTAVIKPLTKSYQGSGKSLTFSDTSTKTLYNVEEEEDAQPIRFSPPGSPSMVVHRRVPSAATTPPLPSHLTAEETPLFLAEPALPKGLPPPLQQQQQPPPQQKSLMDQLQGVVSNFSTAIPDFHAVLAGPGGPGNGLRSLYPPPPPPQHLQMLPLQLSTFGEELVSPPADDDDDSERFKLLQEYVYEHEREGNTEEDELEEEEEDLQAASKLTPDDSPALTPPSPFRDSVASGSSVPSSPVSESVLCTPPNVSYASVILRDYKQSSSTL

[2] = biological target: Metabotropic glutamate receptor 5 (Homo sapiens, UniProt P41594); assay: Negative allosteric modulation of human recombinant mGlu5 receptor expressed in Syrian hamster AV12 cells assessed as receptor-mediated changes in intracellular calcium concentration by FLIPR assay; assay type: functional, cell-based
Chain of Metabotropic glutamate receptor 5 (Homo sapiens, UniProt P41594) (P41594 whole entry): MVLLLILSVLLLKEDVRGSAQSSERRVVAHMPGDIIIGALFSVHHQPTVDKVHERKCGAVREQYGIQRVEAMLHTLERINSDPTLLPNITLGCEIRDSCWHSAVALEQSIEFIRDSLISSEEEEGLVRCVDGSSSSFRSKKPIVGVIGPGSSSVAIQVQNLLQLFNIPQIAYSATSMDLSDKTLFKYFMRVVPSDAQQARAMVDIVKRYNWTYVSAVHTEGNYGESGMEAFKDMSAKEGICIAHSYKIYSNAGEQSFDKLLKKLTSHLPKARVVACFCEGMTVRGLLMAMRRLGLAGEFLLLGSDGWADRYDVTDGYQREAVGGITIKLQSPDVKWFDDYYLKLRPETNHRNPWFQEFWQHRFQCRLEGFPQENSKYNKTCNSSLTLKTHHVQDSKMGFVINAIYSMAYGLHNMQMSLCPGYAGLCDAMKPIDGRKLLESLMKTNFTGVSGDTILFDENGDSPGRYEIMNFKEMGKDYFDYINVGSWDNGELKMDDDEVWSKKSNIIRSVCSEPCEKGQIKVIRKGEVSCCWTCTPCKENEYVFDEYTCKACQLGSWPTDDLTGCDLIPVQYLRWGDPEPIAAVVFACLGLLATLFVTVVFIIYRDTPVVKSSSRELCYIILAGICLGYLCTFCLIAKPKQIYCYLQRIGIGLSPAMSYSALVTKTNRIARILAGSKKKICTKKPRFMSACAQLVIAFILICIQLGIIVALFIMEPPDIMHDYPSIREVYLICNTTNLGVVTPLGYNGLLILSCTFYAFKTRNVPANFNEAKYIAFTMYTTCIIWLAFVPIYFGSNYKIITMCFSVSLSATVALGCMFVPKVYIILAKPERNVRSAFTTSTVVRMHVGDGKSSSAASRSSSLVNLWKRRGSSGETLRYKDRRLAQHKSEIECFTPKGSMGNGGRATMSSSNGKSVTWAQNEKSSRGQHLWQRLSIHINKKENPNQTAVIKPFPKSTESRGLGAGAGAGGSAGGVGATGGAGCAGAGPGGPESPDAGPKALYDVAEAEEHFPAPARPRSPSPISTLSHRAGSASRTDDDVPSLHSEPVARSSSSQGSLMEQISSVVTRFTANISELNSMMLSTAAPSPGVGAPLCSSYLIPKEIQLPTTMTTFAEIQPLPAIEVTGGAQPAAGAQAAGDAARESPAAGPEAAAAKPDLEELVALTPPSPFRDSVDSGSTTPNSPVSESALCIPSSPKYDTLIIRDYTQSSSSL

Rattus norvegicus [3] = species: Rattus norvegicus; assay: Neurotoxicity in Harlan Sprague-Dawley rat assessed as minimal motor impairment up to 4 hrs by rotorod test; assay type: toxicity, organism-based; settings: in vivo
Rattus norvegicus [4] = assay: Analgesic activity in po dosed fasted Harlan Sprague-Dawley rat assessed as inhibition of late phase of formalin- induced paw-licking pain behavior; assay type: functional
[5] = Drug uptake in Harlan Sprague-Dawley rat brain at 10 mg/kg, po after 24 hrs; assay type: ADME, organism-based; design: dose 10 mg/kg, route oral; settings: read-out: Drug uptake
[6] = Drug uptake in Harlan Sprague-Dawley rat brain at 10 mg/kg, po after 4 hrs; assay type: ADME, organism-based; design: dose 10 mg/kg, route oral; settings: read-out: Drug uptake
[7] = Drug uptake in Harlan Sprague-Dawley rat brain at 10 mg/kg, po after 6 hrs; assay type: ADME, organism-based; design: dose 10 mg/kg, route oral; settings: read-out: Drug uptake
[8] = Drug uptake in Harlan Sprague-Dawley rat brain at 10 mg/kg, po after 2 hrs; assay type: ADME, organism-based; design: dose 10 mg/kg, route oral; settings: read-out: Drug uptake
[9] = Drug uptake in Harlan Sprague-Dawley rat brain at 10 mg/kg, po after 0.5 hrs; assay type: ADME, organism-based; design: dose 10 mg/kg, route oral; settings: read-out: Drug uptake
[10] = Drug uptake in Harlan Sprague-Dawley rat brain at 10 mg/kg, po after 1 hr; assay type: ADME, organism-based; design: dose 10 mg/kg, route oral; settings: read-out: Drug uptake
Rattus norvegicus [11] = assay: Ex vivo receptor occupancy of mGlu5 receptor in Harlan Sprague-Dawley rat brain at 10 mg/kg, po after 24 hrs; assay type: functional
Rattus norvegicus [12] = assay: Ex vivo receptor occupancy of mGlu5 receptor in Harlan Sprague-Dawley rat brain at 10 mg/kg, po after 6 hrs; assay type: functional
Rattus norvegicus [13] = assay: Ex vivo receptor occupancy of mGlu5 receptor in Harlan Sprague-Dawley rat brain at 10 mg/kg, po after 4 hrs; assay type: functional
Rattus norvegicus [14] = assay: Ex vivo receptor occupancy of mGlu5 receptor in Harlan Sprague-Dawley rat brain at 10 mg/kg, po after 2 hrs; assay type: functional
Rattus norvegicus [15] = assay: Ex vivo receptor occupancy of mGlu5 receptor in Harlan Sprague-Dawley rat brain at 10 mg/kg, po after 1 hr; assay type: functional
Rattus norvegicus [16] = assay: Ex vivo receptor occupancy of mGlu5 receptor in Harlan Sprague-Dawley rat brain at 10 mg/kg, po after 0.5 hrs; assay type: functional
Rattus norvegicus [17] = assay: Ex vivo receptor occupancy of mGlu1 receptor in Harlan Sprague-Dawley rat brain up to 10 mg/kg, po; assay type: functional, organism-based; design: dose 10 mg/kg
Rattus norvegicus [18] = assay: Ex vivo receptor occupancy of mGlu5 receptor in po dosed Harlan Sprague-Dawley rat brain; assay type: functional
[19] = Bioavailability in Harlan Sprague-Dawley rat at 1.5 mg/kg, po and 1 mg/kg, iv; assay type: ADME, organism-based; settings: in vivo
[20] = Clearance in Harlan Sprague-Dawley rat at 1.5 mg/kg, po and 1 mg/kg, iv; assay type: ADME, organism-based; settings: in vivo
[21] = Volume of distribution in Harlan Sprague-Dawley rat at 1.5 mg/kg, po and 1 mg/kg, iv; assay type: ADME, organism-based; settings: in vivo
[22] = Elimination half life in Harlan Sprague-Dawley rat at 1.5 mg/kg, po; assay type: ADME, organism-based; design: dose 1.5 mg/kg, route oral; settings: in vivo, read-out: beta t1/2 (converted)
[23] = Elimination half life in Harlan Sprague-Dawley rat at 1 mg/kg, iv; assay type: ADME, organism-based; design: dose 1 mg/kg, route intravenous; settings: in vivo, read-out: beta t1/2 (converted)
[24] = Tmax in Harlan Sprague-Dawley rat at 1.5 mg/kg, po; assay type: ADME, organism-based; design: dose 1.5 mg/kg, route oral; settings: in vivo
[25] = AUC (0 to 24 hrs) in Harlan Sprague-Dawley rat at 1.5 mg/kg, po; assay type: ADME, organism-based; design: time < 24 hr, dose 1.5 mg/kg, route oral; settings: plasma
[26] = Cmax in Harlan Sprague-Dawley rat at 1.5 mg/kg, po; assay type: ADME, organism-based; design: dose 1.5 mg/kg, route oral; settings: in vivo
[27] = biological target: T1, 5-hydroxytryptamine receptor 2B (Homo sapiens, UniProt P41595); assay: Binding affinity to 5HT2B receptor (unknown origin)
T1 sequence (P41595 whole entry): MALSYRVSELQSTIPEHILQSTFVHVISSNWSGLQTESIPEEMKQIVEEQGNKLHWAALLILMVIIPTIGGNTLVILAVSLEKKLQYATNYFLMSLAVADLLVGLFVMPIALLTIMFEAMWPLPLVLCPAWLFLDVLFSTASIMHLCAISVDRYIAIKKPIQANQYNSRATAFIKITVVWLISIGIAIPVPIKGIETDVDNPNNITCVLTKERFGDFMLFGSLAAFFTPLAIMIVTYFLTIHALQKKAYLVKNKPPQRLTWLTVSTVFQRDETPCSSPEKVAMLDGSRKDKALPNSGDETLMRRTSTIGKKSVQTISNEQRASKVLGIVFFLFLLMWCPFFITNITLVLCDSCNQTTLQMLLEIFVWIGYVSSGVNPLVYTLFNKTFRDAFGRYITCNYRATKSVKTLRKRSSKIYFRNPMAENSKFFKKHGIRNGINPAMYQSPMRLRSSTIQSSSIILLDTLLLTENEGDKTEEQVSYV

[28] = biological target: Metabotropic glutamate receptor 5 (Rattus norvegicus, UniProt P31424); assay: Negative allosteric modulation of rat mGlu5 receptor
Chain of Metabotropic glutamate receptor 5 (Rattus norvegicus, UniProt P31424) (P31424 whole entry): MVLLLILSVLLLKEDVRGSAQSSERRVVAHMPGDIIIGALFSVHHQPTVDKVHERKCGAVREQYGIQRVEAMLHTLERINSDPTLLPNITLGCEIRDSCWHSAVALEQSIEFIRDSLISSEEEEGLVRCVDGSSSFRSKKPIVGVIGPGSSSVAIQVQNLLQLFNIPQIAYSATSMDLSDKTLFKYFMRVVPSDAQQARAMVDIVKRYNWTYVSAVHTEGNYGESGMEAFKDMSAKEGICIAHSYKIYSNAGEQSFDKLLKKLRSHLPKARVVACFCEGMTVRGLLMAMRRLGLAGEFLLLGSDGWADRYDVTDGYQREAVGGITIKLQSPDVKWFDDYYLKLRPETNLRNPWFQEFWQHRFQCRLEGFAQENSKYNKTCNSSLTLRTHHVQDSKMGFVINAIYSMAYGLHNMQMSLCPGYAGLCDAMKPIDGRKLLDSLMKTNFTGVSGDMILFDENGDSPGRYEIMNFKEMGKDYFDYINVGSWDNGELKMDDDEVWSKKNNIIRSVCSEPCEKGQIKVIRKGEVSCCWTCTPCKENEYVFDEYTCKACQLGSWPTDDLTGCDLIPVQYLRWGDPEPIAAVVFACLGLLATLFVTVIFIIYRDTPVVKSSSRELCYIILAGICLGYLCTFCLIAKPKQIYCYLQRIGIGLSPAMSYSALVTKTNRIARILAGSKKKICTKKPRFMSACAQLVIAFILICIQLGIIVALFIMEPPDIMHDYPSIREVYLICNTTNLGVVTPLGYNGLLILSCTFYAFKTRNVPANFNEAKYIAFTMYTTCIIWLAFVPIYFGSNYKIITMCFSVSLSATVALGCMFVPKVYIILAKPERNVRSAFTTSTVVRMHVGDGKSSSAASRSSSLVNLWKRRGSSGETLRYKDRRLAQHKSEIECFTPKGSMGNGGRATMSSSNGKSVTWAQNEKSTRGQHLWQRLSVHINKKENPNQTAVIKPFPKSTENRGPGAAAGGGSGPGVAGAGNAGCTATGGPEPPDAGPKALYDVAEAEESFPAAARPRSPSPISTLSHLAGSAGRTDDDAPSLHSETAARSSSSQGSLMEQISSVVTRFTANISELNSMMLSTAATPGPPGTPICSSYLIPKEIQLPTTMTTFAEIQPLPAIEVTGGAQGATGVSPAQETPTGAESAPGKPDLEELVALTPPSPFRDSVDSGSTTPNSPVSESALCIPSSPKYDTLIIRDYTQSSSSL

[29] = biological target: T1, 5-hydroxytryptamine receptor 2B; settings: 1 uM
Description: Inhibition of 5HT2B receptor (unknown origin) at 1 uM

With `Cc1cccc(-c2c(-c3ccc4nn(C)cc4c3)nsc2NC(=O)[C@@H]2C[C@H]2C)n1` the Ratio IC50 (Homo sapiens) was 49, the IC50 [1] was 2210 nM and the IC50 [2] was 45 nM.

Compound `COc1cccc(-c2c(-c3ccc4nn(C)cc4c3)nsc2NC(=O)[C@@H]2C[C@H]2C)n1` has a Ratio IC50 (Homo sapiens) of 5, an IC50 [1] of 190 nM and an IC50 [2] of 36 nM.

Compound `C[C@@H]1C[C@H]1C(=O)Nc1snc(-c2ccc3nn(C)cc3c2)c1-c1cccc(CF)n1` has a Ratio IC50 (Homo sapiens) of 26, an IC50 [1] of 1300 nM and an IC50 [2] of 50 nM.

With `CCc1cccc(-c2c(-c3ccc4nn(C)cc4c3)nsc2NC(=O)[C@@H]2C[C@H]2C)n1` the Ratio IC50 (Homo sapiens) was 28, the IC50 [1] was 279 nM and the IC50 [2] was 10 nM.

With `C[C@@H]1C[C@H]1C(=O)Nc1snc(-c2ccc3nn(C)cc3c2)c1-c1cccc(C2CCC2)n1` the Ratio IC50 (Homo sapiens) was 13, the IC50 [1] was 687 nM and the IC50 [2] was 54 nM.

Compound `CCc1cccc(-c2c(-c3ccc4n[nH]cc4c3)nsc2NC(=O)[C@@H]2C[C@H]2C)n1` has a Ratio IC50 (Homo sapiens) of 86, an IC50 [1] of 3110 nM and an IC50 [2] of 36 nM.

In the case of `C[C@@H]1C[C@H]1C(=O)Nc1snc(-c2ccc3nn(C)cc3c2)c1-c1ccccn1`, the Ratio IC50 (Homo sapiens) is reported as 8, the IC50 [1] is reported as 238 nM and the IC50 [2] is reported as 29 nM.

In the case of `C[C@@H]1C[C@H]1C(=O)Nc1snc(-c2ccc3nn(C)cc3c2)c1-c1cccc(N(C)C)n1`, the Ratio IC50 (Homo sapiens) is reported as 477, the IC50 [1] is reported as 9540 nM and the IC50 [2] is reported as 20 nM.

Work on `C[C@@H]1C[C@H]1C(=O)Nc1snc(-c2ccc3nn(C)cc3c2)c1-c1cccc(C2CC2)n1` yielded a Ratio IC50 (Homo sapiens) of 25, an IC50 [1] of 735 nM and an IC50 [2] of 30 nM.

With `COc1ccc(-c2nsc(NC(=O)[C@@H]3C[C@H]3C)c2C)cc1` the Ratio IC50 (Homo sapiens) was > 20.

For `CNc1cccc(-c2c(-c3ccc4nn(C)cc4c3)nsc2NC(=O)[C@@H]2C[C@H]2C)n1`, the Ratio IC50 (Homo sapiens) was 26, the IC50 [1] was 1590 nM and the IC50 [2] was 62 nM.

Compound `C[C@@H]1C[C@H]1C(=O)Nc1snc(-c2ccc3nn(C)cc3c2)c1-c1cccc(C2CCCC2)n1` has a Ratio IC50 (Homo sapiens) of 33, an IC50 [1] of 891 nM and an IC50 [2] of 27 nM.

With `C[C@@H]1C[C@H]1C(=O)Nc1snc(-c2ccc3n[nH]cc3c2)c1-c1cccc(N(C)C)n1` the Ratio IC50 (Homo sapiens) was > 266, the IC50 [1] was > 12500 nM and the IC50 [2] was 47 nM.

Work on `CC(C)c1cccc(-c2c(-c3ccc4nn(C)cc4c3)nsc2NC(=O)C2CC2)n1` yielded a Ratio IC50 (Homo sapiens) of 10, an IC50 [1] of 397 nM and an IC50 [2] of 39 nM.

Compound `CC(C)c1cccc(-c2c(-c3ccc4n[nH]cc4c3)nsc2NC(=O)[C@@H]2C[C@H]2C)n1` has a Ratio IC50 (Homo sapiens) of 102, an IC50 [1] of 4570 nM and an IC50 [2] of 45 nM.

With `CC(C)c1cccc(-c2c(-c3ccc4nn(C)cc4c3)nsc2NC(=O)[C@@H]2C[C@H]2C)n1.Cl` the Activity (Rattus norvegicus [3]) was “Non-toxic”, the ED50 (Rattus norvegicus [4]) was 25.5 mg/kg and the inhibition (Rattus norvegicus [4]) was “Dose-dependent effect”. The concentration at 24 h [5] was 2340 nM, the concentration at 4 h [6] was 2590 nM and the concentration at 6 h [7] was 2980 nM. It also gave a concentration at 2 h [8] of 2850 nM, a concentration at 0.5 h [9] of 1240 nM and a concentration at 1 h [10] of 2230 nM. It also gave an Activity (Rattus norvegicus [11]) of 58.9%, an Activity (Rattus norvegicus [12]) of 62.5% and an Activity (Rattus norvegicus [13]) of 67.7%. It also gave an Activity (Rattus norvegicus [14]) of 74.3%, an Activity (Rattus norvegicus [15]) of 57.8% and an Activity (Rattus norvegicus [16]) of 37.8%. For the same compound, the Activity (Rattus norvegicus [17]) was “inactive”, the Activity (Rattus norvegicus [18]) was “Dose-dependent effect” and the ED50 (Rattus norvegicus [18]) was 2.1 mg/kg. It also gave a bioavailability [19] of 56.5%, a clearance [20] of 8.4 mL/min/kg and a Vd [21] of 2.7 L/kg. For the same compound, the half-life [22] was 4.6 h, the half-life [23] was 4.9 h and the Tmax [24] was 2 h. It also gave an AUC(0-t) at 24 h [25] of 1570 ng·h/mL, a Cmax [26] of 255 ng/mL and a Ki [27] of 3160 nM. It also gave an IC50 [28] of 167 nM, a Ratio IC50 (Homo sapiens) of 34 and an IC50 [1] of 644 nM. For the same compound, the IC50 [2] was 19 nM and the inhibition [29] was 56%.

In the case of `CC[C@@H]1C[C@H]1C(=O)Nc1snc(-c2ccc3nn(C)cc3c2)c1-c1cccc(N(C)C)n1`, the Ratio IC50 (Homo sapiens) is reported as > 357, the IC50 [1] is reported as > 12500 nM and the IC50 [2] is reported as 35 nM.

With `C[C@@H]1C[C@H]1C(=O)Nc1snc(-c2ccc3nn(C)cc3c2)c1-c1cccc(C(F)F)n1` the Ratio IC50 (Homo sapiens) was 13, the IC50 [1] was 1020 nM and the IC50 [2] was 81 nM.

With `CCCc1cccc(-c2c(-c3ccc4nn(C)cc4c3)nsc2NC(=O)[C@@H]2C[C@H]2C)n1` the Ratio IC50 (Homo sapiens) was 20, the IC50 [1] was 409 nM and the IC50 [2] was 20 nM.
